Test results as given in US20250145946A1, “GENERATION OF PURE RETINAL CELLS FROM HUMAN PLURIPOTENT STEM CELLS” (Wisconsin Alumni Research Foundation, priority 2023, published 2025).

How the values were obtained:
hPSCs = test: Single nucleus RNA-seq (snRNA-Seq) profiling of differentiating cells; assay type: cell-based, human; details: day 12
Description: Differentiating cells at multiple time points (day 0-day 12) indicated below were digested and collected for nucleus isolation and library construction (Tao et al., 2024, Nat. Biotech. 12:1404-1416; https://doi.org/10.1038/s41587-023-01977-4). All libraries prepared in this way were processed by NovaSeq. Alignment of raw sequencing reads, and generation of feature barcode matrices were performed using Cellranger (7.1.0). Seurat (4.1.3) was used to process feature barcode matrices and analyze snRNA-Seq data32. All samples were processed under standard quality control metrics. Single cells with more than 300 unique genes (nFeature) and less than 15% or 20% mitochondrial gene reads (percent.mt) were selected for follow-up analysis. Additional procedures were used to exclude low quality cells and doublets in each sample (nFeature<6,000 and nCount<20,000). […] After quality control, all snRNA-Seq data were normalized using the SCTransform (v2) function in Seurat with mitochondria genes regressed out (Choudhary, S. et al., 2022, Genome Biol 23, 27). PCA and UMAP reduction, gene feature plots were done by using Seurat as well.
Single nucleus RNA-seq (snRNA-Seq) assays were performed to profile and compare the differentiating cells under the SB or SB+DMH1 conditions (FIG. 2d). On day 6, after filtering low quality and dead cells, 8,533 and 9,756 cells in the SB and SB+DMH1 groups were collected, respectively. Uniform manifold approximation and projection (UMAP) clustering identified 11 clusters in both conditions (FIG. 2e).
To verify this observation, cells were differentiated with only SB for the first 6 days to generate primitive neuroepithelial cells and then how the BMP pathway regulated retinal differentiation was investigated by treating the cells with or without DMH1 at day 6 (FIG. 2d). Cell nuclei were collected on day 12 for snRNA-Seq to compare differentiating cells in the control (medium without inhibitors) and under DMH1 conditions. […] UMAP clustering identified 13 clusters (FIGS. 2h-2j, FIG. 10a).

[1] = system: H9 human embryonic stem cells (hESCs); test: qPCR analysis of neural and retinal gene expression during hPSC neural/retina differentiation; assay type: cell-based
Description: hPSCs (H9, IMR-90-4 and WC30) were maintained under E8/feeder-free culture condition and passaged at 1:20 ratio with Rock inhibitor. After each new passage, the cells were fed with E8 medium for another 1˜2 days to reach 30-40% confluence. To initiate retina differentiation, culture medium was replaced with Retina Induction Medium (RIM) containing Neural induction medium (NIM) comprising DMEM/F12 media containing 1% N2 and 1× nonessential amino acids (NEAA) supplemented with 10 μM SB431542 (TGF inhibitor, Stemgent, 04-0010-10); this new passage day was counted as day 0 (DO) of retina differentiation. Cells were then fed daily with RIM, or every other day based on the cell density. On day 4, the cells were dissociated by ReLeSR (STEM CELL) or EDTA and re-suspended in the fresh RIM containing 0.5 micromolar (μM) Rock inhibitor. Cell clusters were thereafter transferred to a cell culture flask and cultured in suspension. On day 5, the resulting cell spheres were fed with RIM without SB431542. […] At day 20, the spheres were cultured in Transition medium (DMEM/F12: Neurobasal (1:1) with 1% N2, 2% B27, 1×NEAA and 1×Glutamax) until analysis.
Total RNA was isolated with the RNeasy Plus Mini Kit according to the manufacturer's instructions. For quantitative PCR (qPCR), cDNA was synthesized using PrimeScript RT Reagent Kit (Takara). qPCR was performed using iTaq Universal SYBR Green Supermix (Bio-Rad). GAPDH gene was used as an internal control to equalize cDNA.
H9 human embryonic stem cells (hESCs) were differentiated to neuroepithelia by culture in chemically defined media as disclosed above and then treated with inhibitors against BMP (DMH1), TGF-beta (SB-431542, SB), or WNT (IWR1) pathways separately for 6 days during the neural induction process (FIG. 2a).
Because SOX1 expression was known to be absent in retinal progenitors (also shown in FIG. 7a), expression of SOX2 and SOX1 presented a simple determining marker for cortical vs. retinal progenitors.

[2] = system: H9 human embryonic stem cells (hESCs); test: Flow cytometry of differentiating cells for SOX2, SOX1 and PAX6; assay type: cell-based; details: day 12; FIG. 8a
Description: Flow cytometry was performed following manufacturer's instruction using Transcription Factor Buffer Set which is designed for transcription factor staining. Briefly, single cells were prepared using TrypLE Express Enzyme and fixed in the fixation buffer provided in the kit at 2-8° C. for 45 min. After 3 washings with the permeable buffer, the primary antibodies were added to cells for 45 min at 2-8° C. in a light-tight box. The cells were washed 3 times before incubation with fluorescently conjugated secondary antibodies for 45 mins at 2-8° C. in a light-tight box. After 3 times of washing, cells were suspended in the washing buffer and analyzed by flow cytometry (BD LSR or BD LSRII). Data analysis was performed using FlowJo. Antibodies used were: SOX2 (R&D Systems AF2018), SOX1 (R&D Systems AF3369), PAX6 Alexa Fluor 488 (BD Biosciences Cat #561664), SOX2-V450 (BD Biosciences Cat #561610), SOX1-PE (BD Biosciences Cat #561592), PAX6 (Covance Cat #PRB-278P), VSX2 (Exalpha, Cat #X1180P), CRX (Abnova, Cat #H00001406-M02), OPSIN (MilliporeSigma, Cat #AB5407). Due to the lack of retinal differentiation resulting from BMP inhibition, expression of retina genes was examined at multiple time points in SB and SB plus dorsomorphin homolog 1 (SB+DMH1), which was a well-established dual-SMAD inhibition condition for neural conversion (Chambers, S. M. et al., 2009, Nat Biotechnol 27:275-280). […]

[3] = SB day 0-5, then DMH1 from day 6, vs control
[4] = inhibitor for 6 days during neural induction, vs control, qPCR, FIG. 2b
[5] = inhibitor for 6 days during neural induction, qPCR, FIG. 2b

Row | SMILES | GLI3 expression (hPSCs; [3]) | MKI67 and NES expression levels in progenitor clusters (hPSCs; [3]) | expression of EFTFs PAX6, LHX2, SIX3 and OTX2 (hPSCs; [3]) | expression of BMP target genes ID1/2/4 (hPSCs; SB day 0-5, then DMH1 from day 6, FIG. 10b) | expression of neural genes including PAX6 and SOX1 [1, 4] | expression of retinal lineage-specific markers RAX and VSX2 [1, 4] | effect on retinal differentiation [1, 5] | SOX1 and SOX2 double positive cells (definitive neuroepithelial cells) [2] | expression of SOX1 (definitive neuroepithelial marker) [1, 5] | expression pattern of SOX1 over time ([1]; time course after day 6, SB condition vs BMP2 administration, FIG. 3c)
1 | CC(C)Oc1ccc(-c2cnc3c(-c4ccnc5ccccc45)cnn3c2)cc1 [DMH1] | downregulated | much lower | much lower or even absent | much lower levels | efficiently induced | did not show much change |  |  |  | 
2 | O=C(Nc1cccc2cccnc12)c1ccc(N2C(=O)[C@@H]3[C@H](C2=O)[C@@H]2C=C[C@H]3C2)cc1 [IWR1] |  |  |  |  |  |  | did not have much effect |  |  | 
3 | NC(=O)c1ccc(-c2nc(-c3ccc4c(c3)OCO4)c(-c3ccccn3)[nH]2)cc1 [SB] |  |  |  |  |  | highest expression level |  | 14% | low expression | increased steadily
